Values after ≈ are worked out from the molar mass of the structure shown. Like-named read-outs stand apart in the source and are kept apart here.
Columns and labels:
Assay in all cases: MIC by broth microdilution
K. pneumoniae = type: cell-based, Klebsiella pneumoniae; conditions: for MIC: Klebsiella pneumoniae, read-out: MIC
Experimental: (§1) MICs of amikacin and gentamicin were determined using the broth microdilution method in cation-adjusted Mueller-Hinton broth, as recommended by the Clinical Laboratory Standard Institute (CLSI) guidelines (8). Amikacin and gentamicin sulfate (Fluorochem, Dertbyshire, UK) were tested over a range of dilutions from 0.25 to 256 μg/ml. A final inoculum of 5.10^5 CFU/ml of each strain was distributed in the 96 wells tray (Sarstedt, Ntimbrecht, Germany). All experiments were repeated in triplicate and E. coli ATCC 25922 was used as quality control. According to the CLSI breakpoints (9), Enterobacteriaceae isolates with gentamicin MICs≤4 and amikacin MICs≤16 mg/L were categorized as susceptible, while those with gentamicin MICs≥16 and amikacin MICs≥64 mg/L were categorized as resistant.
(§2) MICs of amikacin and gentamicin were determined as described above in Example 1.

A. baumannii = type: cell-based, Acinetobacter baumannii; conditions: Acinetobacter baumannii
Experimental: as §1, §2

P. stuartii = type: cell-based, Providencia stuartii; conditions: for MIC: Providencia stuartii, read-out: MIC
Experimental: as §1, §2

E. cloacae = type: cell-based, Enterobacter cloacae; conditions: for MIC: Enterobacter cloacae, read-out: MIC
Experimental: as §1, §2

S. marcescens = type: cell-based, Serratia marcescens; conditions: AAC(3)-I
Experimental: as §1, §2

E. coli = type: cell-based, Escherichia coli; conditions: Escherichia coli, read-out: MIC
Experimental: as §1, §2

[1] = isolate 13000, K. pneumoniae, APH(3′)-I + AAC(3)-V
[2] = isolate 22233, K. pneumoniae, AAC(3)-V
[3] = isolate N34, K. pneumoniae, rmtC
[4] = isolate R108, K. pneumoniae, armA
[5] = isolate R347, K. pneumoniae, AG susceptible
[6] = isolate R500, K. pneumoniae, armA
[7] = isolate R502, K. pneumoniae, rmtF
[8] = isolate R2160, K. pneumoniae, rmtG
[9] = isolate R2257, K. pneumoniae, armA
[10] = isolate S155, K. pneumoniae, AG susceptible
[11] = isolate BM2667, P. stuartii, APH(3′)-VI + AAC(2′)
[12] = isolate R265, P. stuartii, rmtC
[13] = isolate 1110, E. cloacae, ANT(2″)
[14] = isolate HM, E. cloacae, AG susceptible
[15] = isolate R713, E. cloacae, AG susceptible
[16] = isolate R1433, E. cloacae, AG susceptible
[17] = isolate R2258, E. cloacae, armA

**Q.** `NCC[C@H](O)C(=O)N[C@@H]1C[C@H](N)[C@@H](O[C@H]2O[C@H](CN)[C@@H](O)[C@H](O)[C@H]2O)[C@H](O)[C@H]1O[C@H]1O[C@H](CO)[C@@H](O)[C@H](N)[C@H]1O` [Amikacin] was tested. Which MIC (K. pneumoniae; isolate 1800, K. pneumoniae, AAC(6′)-I + AAC(3)-I) did it give?
**A.** 32 µg/mL

**Q.** And the MIC (K. pneumoniae; [1])?
**A.** 0.5 µg/mL

**Q.** And the MIC (K. pneumoniae; [2])?
**A.** 16 µg/mL (≈ 27.3 µM)

**Q.** And the MIC (K. pneumoniae; [3])?
**A.** > 256 µg/mL

**Q.** What about the MIC (K. pneumoniae; [4]) of the same compound?
**A.** > 256 µg/mL

**Q.** And the MIC (K. pneumoniae; [5])?
**A.** 4 µg/mL (≈ 6.83 µM)

**Q.** What about the MIC (K. pneumoniae; [6]) of the same compound?
**A.** > 256 µg/mL

**Q.** What about the MIC (K. pneumoniae; [7]) of the same compound?
**A.** > 256 µg/mL

**Q.** And the MIC (K. pneumoniae; [8])?
**A.** > 256 µg/mL

**Q.** What about the MIC (K. pneumoniae; [9]) of the same compound?
**A.** > 256 µg/mL

**Q.** And the MIC (K. pneumoniae; [10])?
**A.** 2 µg/mL (≈ 3.42 µM)

**Q.** And the MIC (K. pneumoniae; strain 1800, K. pneumoniae, AAC(6′)-I + AAC(3)-I)?
**A.** 32 µg/mL

**Q.** What about the MIC (K. pneumoniae; strain 13000, K. pneumoniae, APH(3′)-I + AAC(3)-V) of the same compound?
**A.** 0.5 µg/mL

**Q.** What about the MIC (K. pneumoniae; strain 22233, K. pneumoniae, AAC(3)-V) of the same compound?
**A.** 16 µg/mL (≈ 27.3 µM)

**Q.** What about the MIC (K. pneumoniae; strain N34, K. pneumoniae, rmtC) of the same compound?
**A.** > 512 µg/mL

**Q.** And the MIC (K. pneumoniae; strain R108, K. pneumoniae, armA)?
**A.** > 512 µg/mL

**Q.** And the MIC (K. pneumoniae; strain R347, K. pneumoniae, susceptible)?
**A.** 4 µg/mL (≈ 6.83 µM)

**Q.** And the MIC (K. pneumoniae; strain R500, K. pneumoniae, armA)?
**A.** > 512 µg/mL

**Q.** What about the MIC (K. pneumoniae; strain R502, K. pneumoniae, rmtF) of the same compound?
**A.** > 512 µg/mL

**Q.** And the MIC (K. pneumoniae; strain R2160, K. pneumoniae, rmtG)?
**A.** > 512 µg/mL

**Q.** And the MIC (K. pneumoniae; strain R2257, K. pneumoniae, armA)?
**A.** > 512 µg/mL

**Q.** What about the MIC (K. pneumoniae; strain S155, K. pneumoniae, susceptible) of the same compound?
**A.** 2 µg/mL (≈ 3.42 µM)

**Q.** And the “Amikacin Phenotype” value (K. pneumoniae; [1])?
**A.** S (amikacin MICs≤16 mg/L were categorized as susceptible)

**Q.** And the “Amikacin Phenotype” value (K. pneumoniae; [2])?
**A.** S (amikacin MICs≤16 mg/L were categorized as susceptible)

**Q.** And the “Amikacin Phenotype” value (K. pneumoniae; [3])?
**A.** R (amikacin MICs≥64 mg/L were categorized as resistant)

**Q.** And the “Amikacin Phenotype” value (K. pneumoniae; [4])?
**A.** R (amikacin MICs≥64 mg/L were categorized as resistant)

**Q.** What about the “Amikacin Phenotype” value (K. pneumoniae; [5]) of the same compound?
**A.** S (amikacin MICs≤16 mg/L were categorized as susceptible)

**Q.** And the “Amikacin Phenotype” value (K. pneumoniae; [6])?
**A.** R (amikacin MICs≥64 mg/L were categorized as resistant)

**Q.** What about the “Amikacin Phenotype” value (K. pneumoniae; [7]) of the same compound?
**A.** R (amikacin MICs≥64 mg/L were categorized as resistant)

**Q.** And the “Amikacin Phenotype” value (K. pneumoniae; [8])?
**A.** R (amikacin MICs≥64 mg/L were categorized as resistant)

**Q.** And the “Amikacin Phenotype” value (K. pneumoniae; [9])?
**A.** R (amikacin MICs≥64 mg/L were categorized as resistant)

**Q.** And the “Amikacin Phenotype” value (K. pneumoniae; [10])?
**A.** S (amikacin MICs≤16 mg/L were categorized as susceptible)

**Q.** And the MIC (A. baumannii)?
**A.** 128 µg/mL (≈ 219 µM)

**Q.** What about the MIC (A. baumannii; strain 4996, A. baumannii, AAC(6′)-I, read-out: MIC) of the same compound?
**A.** 64 µg/mL (≈ 109 µM)

**Q.** And the MIC (A. baumannii; strain BM2580, A. baumannii, APH(3′)-VI, read-out: MIC)?
**A.** 64 µg/mL (≈ 109 µM)

**Q.** What about the MIC (A. baumannii; strain R264, A. baumannii, armA, read-out: MIC) of the same compound?
**A.** > 512 µg/mL

**Q.** And the MIC (A. baumannii; strain R1395, A. baumannii, susceptible, read-out: MIC)?
**A.** 2 µg/mL (≈ 3.42 µM)

**Q.** What about the MIC (P. stuartii; [11]) of the same compound?
**A.** 64 µg/mL

**Q.** And the MIC (P. stuartii; isolate R38, P. stuartii, rmtC)?
**A.** > 256 µg/mL

**Q.** And the MIC (P. stuartii; [12])?
**A.** > 256 µg/mL

**Q.** What about the MIC (P. stuartii; strain BM2667, P. stuartii, APH(3′)-VI + AAC(2′)) of the same compound?
**A.** 64 µg/mL

**Q.** And the MIC (P. stuartii; strain R38, P. stuartii, rmtC)?
**A.** > 512 µg/mL

**Q.** What about the MIC (P. stuartii; strain R265, P. stuartii, rmtC) of the same compound?
**A.** > 512 µg/mL

**Q.** And the “Amikacin Phenotype” value (P. stuartii; [11])?
**A.** R (amikacin MICs≥64 mg/L were categorized as resistant)

**Q.** And the “Amikacin Phenotype” value (P. stuartii; isolate R38, P. stuartii, rmtC)?
**A.** R (amikacin MICs≥64 mg/L were categorized as resistant)

**Q.** What about the “Amikacin Phenotype” value (P. stuartii; [12]) of the same compound?
**A.** R (amikacin MICs≥64 mg/L were categorized as resistant)

**Q.** And the MIC (E. cloacae; [13])?
**A.** 1 µg/mL (≈ 1.71 µM)

**Q.** What about the MIC (E. cloacae; [14]) of the same compound?
**A.** 4 µg/mL (≈ 6.83 µM)

**Q.** What about the MIC (E. cloacae; [15]) of the same compound?
**A.** 4 µg/mL (≈ 6.83 µM)

**Q.** And the MIC (E. cloacae; [16])?
**A.** 4 µg/mL (≈ 6.83 µM)

**Q.** What about the MIC (E. cloacae; [17]) of the same compound?
**A.** > 256 µg/mL

**Q.** And the MIC (E. cloacae; strain 1110, E. cloacae, ANT(2″))?
**A.** 1 µg/mL (≈ 1.71 µM)

**Q.** And the MIC (E. cloacae; strain HM, E. cloacae, susceptible)?
**A.** 4 µg/mL (≈ 6.83 µM)

**Q.** What about the MIC (E. cloacae; strain R713, E. cloacae, susceptible) of the same compound?
**A.** 4 µg/mL (≈ 6.83 µM)

**Q.** What about the MIC (E. cloacae; strain R1433, E. cloacae, susceptible) of the same compound?
**A.** 4 µg/mL (≈ 6.83 µM)

**Q.** And the MIC (E. cloacae; strain R2258, E. cloacae, armA)?
**A.** > 512 µg/mL

**Q.** What about the “Amikacin Phenotype” value (E. cloacae; [13]) of the same compound?
**A.** S (amikacin MICs≤16 mg/L were categorized as susceptible)

**Q.** And the “Amikacin Phenotype” value (E. cloacae; [14])?
**A.** S (amikacin MICs≤16 mg/L were categorized as susceptible)

**Q.** And the “Amikacin Phenotype” value (E. cloacae; [15])?
**A.** S (amikacin MICs≤16 mg/L were categorized as susceptible)

**Q.** And the “Amikacin Phenotype” value (E. cloacae; [16])?
**A.** S (amikacin MICs≤16 mg/L were categorized as susceptible)

**Q.** And the “Amikacin Phenotype” value (E. cloacae; [17])?
**A.** R (amikacin MICs≥64 mg/L were categorized as resistant)

**Q.** What about the MIC (S. marcescens; Serratia marcescens, isolate 4290, S. marcescens, read-out: MIC) of the same compound?
**A.** 4 µg/mL (≈ 6.83 µM)

**Q.** What about the “Amikacin Phenotype” value (S. marcescens; isolate 4290, S. marcescens) of the same compound?
**A.** S (amikacin MICs≤16 mg/L were categorized as susceptible)

**Q.** And the MIC (S. marcescens; strain 4290, S. marcescens)?
**A.** 4 µg/mL (≈ 6.83 µM)

**Q.** And the MIC (E. coli; ATCC25922, isolate FR136, E. coli ATCC 25922, AG susceptible)?
**A.** 2 µg/mL (≈ 3.42 µM)

**Q.** And the MIC (E. coli; ATCC25922, strain R2298, E. coli ATCC 25922, susceptible)?
**A.** 2 µg/mL (≈ 3.42 µM)

**Q.** And the MIC (E. coli; ATCC35218, isolate R2278, E. coli ATCC 35218, AG susceptible)?
**A.** 4 µg/mL (≈ 6.83 µM)

**Q.** What about the MIC (E. coli; ATCC35218, strain R2278, E. coli ATCC 35218, susceptible) of the same compound?
**A.** 4 µg/mL (≈ 6.83 µM)

**Q.** What about the MIC (E. coli; isolate 62Carb, E. coli, rmtB) of the same compound?
**A.** > 256 µg/mL
